Values joined by “and” are separate entries in the source; they are usually repeats but may differ in a detail not shown here. Equal entries are not always repeated.
Key:
Format in all cases: biochemical
human plasmin [1] = biological target: T1, human plasmin (Homo sapiens, UniProt P00747); assay: Direct inhibition of human plasmin, chromogenic substrate; conditions: for HS (Hill slope): Tris-HCl buffer pH 7.4, 37 °C
human plasmin [2] = biological target: T1, human plasmin; assay: Michaelis-Menten kinetics of Spectrozyme PL hydrolysis by human plasmin
human plasmin [3] = biological target: T1, human plasmin; assay: Protamine reversibility of plasmin inhibition by NSGM 2; conditions: plasmin treated with inhibitor 2 (200 μM), pH 7.4, 37 °C

T1 sequence (P00747 97-580 limits assumed): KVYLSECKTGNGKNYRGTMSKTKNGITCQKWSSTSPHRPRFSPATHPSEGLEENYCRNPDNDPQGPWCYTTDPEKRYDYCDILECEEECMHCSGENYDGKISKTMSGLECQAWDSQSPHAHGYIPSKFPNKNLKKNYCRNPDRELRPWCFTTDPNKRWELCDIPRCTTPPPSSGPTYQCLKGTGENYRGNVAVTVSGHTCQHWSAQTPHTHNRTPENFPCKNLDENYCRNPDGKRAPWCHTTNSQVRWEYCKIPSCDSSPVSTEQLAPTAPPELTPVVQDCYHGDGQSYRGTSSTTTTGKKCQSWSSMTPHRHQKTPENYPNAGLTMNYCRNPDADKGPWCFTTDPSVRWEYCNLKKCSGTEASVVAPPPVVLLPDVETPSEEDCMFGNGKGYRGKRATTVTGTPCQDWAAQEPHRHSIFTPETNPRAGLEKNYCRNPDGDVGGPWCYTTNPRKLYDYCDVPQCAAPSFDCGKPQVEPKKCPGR
T1 sequence (P00747 581-810 limits assumed): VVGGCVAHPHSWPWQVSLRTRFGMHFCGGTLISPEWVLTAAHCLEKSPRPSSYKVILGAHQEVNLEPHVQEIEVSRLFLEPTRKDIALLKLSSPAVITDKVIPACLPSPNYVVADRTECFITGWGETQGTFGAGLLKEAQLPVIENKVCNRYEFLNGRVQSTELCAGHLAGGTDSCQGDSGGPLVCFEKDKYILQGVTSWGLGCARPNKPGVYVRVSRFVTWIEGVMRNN

Compound | HS (Hill slope) (human plasmin [1]) | other results
O=c1c(OS(=O)(=O)[O-])c(-c2ccc(OS(=O)(=O)[O-])c(OS(=O)(=O)[O-])c2)oc2cc(OS(=O)(=O)[O-])cc(OCc3ccc(-c4ccc(COc5cc(OS(=O)(=O)[O-])cc6oc(-c7ccc(OS(=O)(=O)[O-])c(OS(=O)(=O)[O-])c7)c(OS(=O)(=O)[O-])c(=O)c56)cc4)cc3)c12.[Na+].[Na+].[Na+].[Na+].[Na+].[Na+].[Na+].[Na+] [NSGM 3, Sodium 4-(5-((4′-(((2-(3,4-Bis(sulfonatooxy)phenyl)-4-oxo-3,7-bis(sulfonatooxy)-4H-chromen-5-yl)oxy)methyl)-[1,1′-bi-phenyl]-4-yl)methoxy)-4-oxo-3,7-bis(sulfonatooxy)-4H-chromen-2-yl)-1,2-phenylene Bis(sulfate)] | 0.8 ± 0.2 | 
O=c1c(OS(=O)(=O)[O-])c(-c2ccc(OS(=O)(=O)[O-])c(OS(=O)(=O)[O-])c2)oc2cc(OS(=O)(=O)[O-])cc(OCCCCOc3cc(OS(=O)(=O)[O-])cc4oc(-c5ccc(OS(=O)(=O)[O-])c(OS(=O)(=O)[O-])c5)c(OS(=O)(=O)[O-])c(=O)c34)c12.[Na+].[Na+].[Na+].[Na+].[Na+].[Na+].[Na+].[Na+] [NSGM 1] | 1.0 ± 0.2 | 
O=c1c(O)c(-c2ccc(O)c(O)c2)oc2cc(O)cc(OCc3ccc(COc4cc(O)cc5oc(-c6ccc(O)c(O)c6)c(O)c(=O)c45)cc3)c12 [1j, 5,5′-((1,4-Phenylenebis(methylene))bis(oxy))bis(2-(3,4-dihydroxyphenyl)-3,7-dihydroxy-4H-chromen-4-one)] |  | fold less potent plasmin inhibition than NSGM 2 (human plasmin [1]; 1j versus 2): about 18.3 fold; VMAX (human plasmin [2]; [inhibitor] 100 μM): 51.0 ± 4.6 mAU/min; VMAX (human plasmin [2]; [inhibitor] 240 μM): 51.7 ± 3.9 mAU/min; VMAX (human plasmin [2]; [inhibitor] 400 μM): 51.3 ± 4.0 mAU/min; mechanism of plasmin inhibition (human plasmin [2]; from Michaelis-Menten kinetics): competitive; fold increase in KM (human plasmin [2]; inhibitor concentration reaching 400 μM): ~ 13.5 fold; VMAX across inhibitor concentrations (human plasmin [2]; inhibitor concentration reaching 400 μM, essentially unchanged): 50.6–51.3 mAU/min
O=c1c(OS(=O)(=O)[O-])c(-c2ccc(OS(=O)(=O)[O-])c(OS(=O)(=O)[O-])c2)oc2cc(OS(=O)(=O)[O-])cc(OCc3cccc(COc4cc(OS(=O)(=O)[O-])cc5oc(-c6ccc(OS(=O)(=O)[O-])c(OS(=O)(=O)[O-])c6)c(OS(=O)(=O)[O-])c(=O)c45)n3)c12.[Na+].[Na+].[Na+].[Na+].[Na+].[Na+].[Na+].[Na+] [NSGM 6, Sodium 4-(5-((6-(((2-(3,4-Bis(sulfonatooxy)phenyl)-4-oxo-3,7-bis(sulfonatooxy)-4H-chromen-5-yl)oxy)methyl)pyridin-2-yl)methoxy)-4-oxo-3,7-bis(sulfonatooxy)-4H-chromen-2-yl)-1,2-phenylene Bis(sulfate)] | 0.8 ± 0.2 | 
protamine |  | efficacy of restoring plasmin activity (human plasmin [3]): ~ 100%
O=c1c(OS(=O)(=O)[O-])c(-c2ccc(OS(=O)(=O)[O-])c(OS(=O)(=O)[O-])c2)oc2cc(OS(=O)(=O)[O-])cc(OCc3ccc(COc4cc(OS(=O)(=O)[O-])cc5oc(-c6ccc(OS(=O)(=O)[O-])c(OS(=O)(=O)[O-])c6)c(OS(=O)(=O)[O-])c(=O)c45)cc3)c12.[Na+].[Na+].[Na+].[Na+].[Na+].[Na+].[Na+].[Na+] | 0.7 ± 0.1 | VMAX (human plasmin [2]; [inhibitor] 1.6 μM, pH 7.4, 37 °C): 36.3 ± 2.0 mAU/min; VMAX (human plasmin [2]; [inhibitor] 8 μM): 29.0 ± 0.6 mAU/min; VMAX (human plasmin [2]; [inhibitor] 100 μM): 15.1 ± 1.0 mAU/min; VMAX (human plasmin [2]; [inhibitor] 200 μM, listed as 2): 10.4 mAU/min and 10.4 ± 0.5 mAU/min
O=c1cc(-c2ccc(OS(=O)(=O)[O-])cc2)oc2cc(OS(=O)(=O)[O-])cc(OCCCCOc3cc(OS(=O)(=O)[O-])cc4oc(-c5ccc(OS(=O)(=O)[O-])cc5)cc(=O)c34)c12.[Na+].[Na+].[Na+].[Na+] [NSGM 9, Sodium 4-Oxo-5-(4-((4-oxo-7-(sulfonatooxy)-2-(4-(sulfonatooxy)phenyl)-4H-chromen-5-yl)oxy)butoxy)-2-(4-(sulfonatooxy)phenyl)-4H-chromen-7-yl Sulfate] | 1.8 ± 0.3 | 
O=c1cc(-c2ccc(OS(=O)(=O)[O-])cc2)oc2cc(OS(=O)(=O)[O-])cc(OCCOc3cc(OS(=O)(=O)[O-])cc4oc(-c5ccc(OS(=O)(=O)[O-])cc5)cc(=O)c34)c12.[Na+].[Na+].[Na+].[Na+] [NSGM 7, Sodium 4-Oxo-5-(2-((4-oxo-7-(sulfonatooxy)-2-(4-(sulfonatooxy)phenyl)-4H-chromen-5-yl)oxy)ethoxy)-2-(4-(sulfonatooxy)phenyl)-4H-chromen-7-yl Sulfate] | 2.4 ± 0.3 | 
O=c1cc(-c2ccc(OS(=O)(=O)[O-])cc2)oc2cc(OS(=O)(=O)[O-])cc(OC/C=C/COc3cc(OS(=O)(=O)[O-])cc4oc(-c5ccc(OS(=O)(=O)[O-])cc5)cc(=O)c34)c12.[Na+].[Na+].[Na+].[Na+] [NSGM 10, Sodium (E)-4-Oxo-5-((4-((4-oxo-7-(sulfonatooxy)-2-(4-(sulfonatooxy)phenyl)-4H-chromen-5-yl)oxy)but-2-en-1-yl)-oxy)-2-(4-(sulfonatooxy)phenyl)-4H-chromen-7-yl Sulfate] | 0.9 ± 0.2 | 
O=c1c(OS(=O)(=O)[O-])c(-c2ccc(OS(=O)(=O)[O-])c(OS(=O)(=O)[O-])c2)oc2cc(OS(=O)(=O)[O-])cc(OCc3cccc(COc4cc(OS(=O)(=O)[O-])cc5oc(-c6ccc(OS(=O)(=O)[O-])c(OS(=O)(=O)[O-])c6)c(OS(=O)(=O)[O-])c(=O)c45)c3)c12.[Na+].[Na+].[Na+].[Na+].[Na+].[Na+].[Na+].[Na+] [NSGM 5, Sodium 4-(5-((3-(((2-(3,4-Bis(sulfonatooxy)phenyl)-4-oxo-3,7-bis(sulfonatooxy)-4H-chromen-5-yl)oxy)methyl)benzyl)-oxy)-4-oxo-3,7-bis(sulfonatooxy)-4H-chromen-2-yl)-1,2-phenylene Bis(sulfate)] | 0.6 ± 0.1 | 
Cc1cc(COc2cc(OS(=O)(=O)[O-])cc3oc(-c4ccc(OS(=O)(=O)[O-])c(OS(=O)(=O)[O-])c4)c(OS(=O)(=O)[O-])c(=O)c23)c(C)cc1COc1cc(OS(=O)(=O)[O-])cc2oc(-c3ccc(OS(=O)(=O)[O-])c(OS(=O)(=O)[O-])c3)c(OS(=O)(=O)[O-])c(=O)c12.[Na+].[Na+].[Na+].[Na+].[Na+].[Na+].[Na+].[Na+] [NSGM 4, Sodium 4-(5-((4-(((2-(3,4-Bis(sulfonatooxy)phenyl)-4-oxo-3,7-bis(sulfonatooxy)-4H-chromen-5-yl)oxy)methyl)-2,5-dimethylbenzyl)oxy)-4-oxo-3,7-bis(sulfonatooxy)-4H-chromen-2-yl)-1,2-phenylene Bis(sulfate)] | 0.7 ± 0.1 | 

The next lines start with results.

HS (Hill slope) (human plasmin [1]) | Compound | other results
0.9 ± 0.1 | O=c1cc(-c2ccc(OS(=O)(=O)[O-])cc2)oc2cc(OS(=O)(=O)[O-])cc(OCc3ccc(COc4cc(OS(=O)(=O)[O-])cc5oc(-c6ccc(OS(=O)(=O)[O-])c(OS(=O)(=O)[O-])c6)c(OS(=O)(=O)[O-])c(=O)c45)cc3)c12.[Na+].[Na+].[Na+].[Na+].[Na+].[Na+] [NSGM 16, Sodium 4-(4-Oxo-5-((4-(((4-oxo-7-(sulfonatooxy)-2-(4-(sulfonatooxy)phenyl)-4H-chromen-5-yl)oxy)methyl)benzyl)-oxy)-3,7-bis(sulfonatooxy)-4H-chromen-2-yl)-1,2-phenylene Bis(sulfate)] | 
2.0 ± 0.1 | Cc1cc(COc2cc(OS(=O)(=O)[O-])cc3oc(-c4ccc(OS(=O)(=O)[O-])cc4)cc(=O)c23)c(C)cc1COc1cc(OS(=O)(=O)[O-])cc2oc(-c3ccc(OS(=O)(=O)[O-])cc3)cc(=O)c12.[Na+].[Na+].[Na+].[Na+] [NSGM 13, Sodium 5-((2,5-Dimethyl-4-(((4-oxo-7-(sulfonatooxy)-2-(4-(sulfonatooxy)phenyl)-4H-chromen-5-yl)oxy)methyl)benzyl)-oxy)-4-oxo-2-(4-(sulfonatooxy)phenyl)-4H-chromen-7-yl Sulfate] | 
2.4 ± 0.3 | O=c1cc(-c2ccc(OS(=O)(=O)[O-])cc2)oc2cc(OS(=O)(=O)[O-])cc(OCc3ccc(COc4cc(OS(=O)(=O)[O-])cc5oc(-c6ccc(OS(=O)(=O)[O-])cc6)cc(=O)c45)cc3)c12.[Na+].[Na+].[Na+].[Na+] [NSGM 11, Sodium 4-Oxo-5-((4-(((4-oxo-7-(sulfonatooxy)-2-(4-(sulfonatooxy)phenyl)-4H-chromen-5-yl)oxy)methyl)benzyl)-oxy)-2-(4-(sulfonatooxy)phenyl)-4H-chromen-7-yl Sulfate] | 
1.1 ± 0.1 | O=c1cc(-c2ccc(OS(=O)(=O)[O-])cc2)oc2cc(OS(=O)(=O)[O-])cc(OCc3ccc(-c4ccc(COc5cc(OS(=O)(=O)[O-])cc6oc(-c7ccc(OS(=O)(=O)[O-])cc7)cc(=O)c56)cc4)cc3)c12.[Na+].[Na+].[Na+].[Na+] [NSGM 12, Sodium 4-Oxo-5-((4′-(((4-oxo-7-(sulfonatooxy)-2-(4-(sulfonatooxy)phenyl)-4H-chromen-5-yl)oxy)methyl)-[1,1′-bi-phenyl]-4-yl)methoxy)-2-(4-(sulfonatooxy)phenyl)-4H-chromen-7-yl Sulfate] | 
2.3 ± 0.5 | O=c1cc(-c2ccc(OS(=O)(=O)[O-])cc2)oc2cc(OS(=O)(=O)[O-])cc(OCc3cccc(COc4cc(OS(=O)(=O)[O-])cc5oc(-c6ccc(OS(=O)(=O)[O-])cc6)cc(=O)c45)c3)c12.[Na+].[Na+].[Na+].[Na+] [NSGM 14, Sodium 4-Oxo-5-((3-(((4-oxo-7-(sulfonatooxy)-2-(4-(sulfonatooxy)phenyl)-4H-chromen-5-yl)oxy)methyl)benzyl)-oxy)-2-(4-(sulfonatooxy)phenyl)-4H-chromen-7-yl Sulfate] | 
1.2 ± 0.2 | O=c1cc(-c2ccc(OS(=O)(=O)[O-])cc2)oc2cc(OS(=O)(=O)[O-])cc(OCc3cccc(COc4cc(OS(=O)(=O)[O-])cc5oc(-c6ccc(OS(=O)(=O)[O-])cc6)cc(=O)c45)n3)c12.[Na+].[Na+].[Na+].[Na+] [NSGM 15, Sodium 4-Oxo-5-((6-(((4-oxo-7-(sulfonatooxy)-2-(4-(sulfonatooxy)phenyl)-4H-chromen-5-yl)oxy)methyl)pyridin-2-yl)methoxy)-2-(4-(sulfonatooxy)phenyl)-4H-chromen-7-yl Sulfate] | 

Reference: paper PMC8788145 (Journal of medicinal chemistry, 2017)
